Experiments:
CypD = CypD (Homo sapiens, UniProt P30405); assay: CypD PPIase activity, chymotrypsin-coupled assay; type: biochemical; details: Table 1
[1] = tested on: isolated mouse liver mitochondria; assay: Calcium retention capacity (CRC) assay in isolated liver mitochondria; type: biochemical; details: for EC50: isolated mouse liver mitochondria; for maximal mitochondrial CRC, diastereoisomer vs racemic mixture: Fig. 2E; for maximal mitochondrial CRC: compound at 100 μM (Fig. 1C), basal 160 ± 8
[2] = tested on: isolated mouse liver mitochondria; assay: Ca2+-induced mitochondrial swelling assay; type: biochemical; details: energised isolated mouse liver mitochondria
AML-12 cells [3] = assay: mPTP opening, CoCl2-calcein AM fluorescence-quenching assay, hypoxia/reoxygenation; type: cell-based, mouse; details: for prevention of mPTP opening (loss of calcein fluorescence): 1 μM, 4 h hypoxia, 1 h reoxygenation
Method: We next evaluated the ability of compounds C105SR and C110SR to inhibit mPTP opening in cells. The hepatocyte cell line AML-12 was subjected to 4 h of hypoxia followed by 1 h of reoxygenation and mPTP opening was monitored using the CoCl2-calcein-acetoxymethyl ester (AM) fluorescence-quenching method.[19] Calcein-AM is a membrane permeable fluorophore which passively diffuses in all subcellular compartments including mitochondria. In the cell, the AM group of the fluorophore is cleaved by ubiquitous intracellular esterases, generating a hydrophilic product that is retained within the cell. The cells are then loaded with the divalent cobalt cation (Co^2+), which quenches calcein fluorescence in all subcellular compartments except the mitochondrial matrix, because the inner mitochondrial membrane is impermeable to cobalt. However, when mPTP is open, cobalt enters mitochondria and quenches mitochondrial calcein fluorescence. […]
(§1) Hypoxia/reoxygenation (H/R) in vitro model. AML-12 mouse hepatocyte line was obtained from American Type Culture Collection (ATCC) and maintained in DMEM/F12 culture medium at 37°C with 5% CO2. HepaRG human hepatocyte line was obtained from American Type Culture Collection (ATCC) and maintained in William’S E culture medium at 37°C with 5% CO2.When indicated, cells were incubated in phosphate buffered saline at 37°C in a hypoxic chamber filled with 94% N2, 1% O2, 5% CO2 for 4 h to mimic ischemic conditions. Then, cells were transferred to a CO2 incubator at 37°C in regular DMEM/F12 culture medium for 1 or 2 h under normoxic conditions (74% N2, 21% O2, 5% CO2). SMCypIs or vehicle (DMSO) were added during the hypoxia period, during the reoxygenation period, or during both. CsA and ALV were used as positive controls for hepatic protection against H/R injury.
Monitoring of mPTP opening. mPTP opening was monitored in AML-12 cells using the CoCl2-calcein AM fluorescence-quenching assay. Cells were loaded with 1 µM calcein-AM (green) for 20 min. Then, 1 mM CoCl2 was added and cells were incubated for another 10 min. Cells were washed and subjected to 4 h of hypoxia followed by 1 h of reoxygenation. Calcein fluorescence was measured using a spectrofluorimeter at excitation and emission wavelengths of 485 nm and 535 nm, respectively. Images were acquired using a standard inverted fluorescence microscope (Zeiss Axio, […]
media during the entire H/R period. Images shown are representative images of 12-18 images. […]
Optical density of purple formazan product was measured at 550 nm. […]

AML-12 cells [4] = assay: LDH release, hypoxia/reoxygenation; type: cell-based, mouse; details: 0.5 μM
Method: As expected, cells subjected to hypoxia/reoxygenation were characterised by greater LDH release and reduced cell viability as compared to untreated controls (Fig. 4A and 4B). […]
as §1, with “injury. […]” for “injury.”
Cell viability assays. Lactate dehydrogenase (LDH) release in culture medium was assessed using the commercially non-radioactive CytoTox-96 kit (Promega, Madison, Wisconsin) following the manufacturer’s instructions. Briefly, cell culture media were collected and the LDH activity was determined by measuring absorbance at 491 nm with a spectrometer (Multiskan skyHigh). For 3-(4,5-dimethylthiazol-2-yl)-2,5-diphenyltetrazolium bromide (MTT) assay, cells were incubated with a solution of MTT (0.5 mg/mL) for 2 h at 37°C. The medium was then removed and 50 µL DMSO was added to each well. Optical density of purple formazan product was measured at 550 nm. Cell viability was expressed as a percentage of the untreated control.

Sequence of CypD (P30405 30-207): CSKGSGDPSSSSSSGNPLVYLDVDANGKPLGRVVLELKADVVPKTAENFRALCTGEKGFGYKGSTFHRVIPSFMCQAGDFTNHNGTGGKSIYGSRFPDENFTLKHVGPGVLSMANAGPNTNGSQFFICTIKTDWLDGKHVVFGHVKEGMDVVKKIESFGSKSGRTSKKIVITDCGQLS

| Compound | IC50 (CypD) [nM] | other results |
| --- | --- | --- |
| CSc1ccccc1C1CCCN1C(=O)C(NC(=O)NCc1ccc(N)cc1)c1ccccc1 (stereo not shown) [Compound C31] | 200 ± 100 | EC50 [1]: 9090 ± 210 nM; IC50 [2]: 1300 ± 50 nM; inhibition of mPTP opening (AML-12 cells [3]; 0.5 μM): not effective; inhibition of cell death (AML-12 cells [4]): not effective |
| CSc1ccccc1C1CCCN1C(=O)C(NC(=O)NCc1ccc(N)cc1)C1CCCCC1 (stereo not shown) [Compound C71, 1-(4-aminobenzyl)-3-(1-cyclohexyl-2-(2-(2-(methylthio)phenyl)pyrrolidin-1-yl)-2-oxoethyl)urea] | 790 ± 210 |  |
| CSc1ccccc1C1CCCN1C(=O)C(NC(=O)NC(C)c1ccc(N)c(F)c1)c1ccccc1 (stereo not shown) [Compound C101, 1-(1-(4-amino-3-fluorophenyl)ethyl)-3-(2-(2-(2-(methylthio)phenyl)pyrrolidin-1-yl)-2-oxo-1-phenylethyl)urea] | 400 ± 190 |  |
| COc1ccc(Br)cc1C(NC(=O)NCc1ccc2c(c1)CCCN2)C(=O)N1CCCC1c1cccc2ccsc12 (stereo not shown) [Compound C105, 1-(2-(2-(benzo[b]thiophen-7-yl)pyrrolidin-1-yl)-1-(5-bromo-2-methoxyphenyl)-2-oxoethyl)-3-((1,2,3,4-tetrahydroquinolin-6-yl)methyl)urea] |  | maximal mitochondrial CRC, diastereoisomer vs racemic mixture [1]: 407 ± 13 nmol Ca2+/mg of mitochondrial; maximal mitochondrial CRC [1]: 407 ± 13 nmol Ca2+/mg of mitochondrial; EC50 [1]: 2370 ± 110 nM; IC50 [2]: 690 ± 50 nM; prevention of mPTP opening (loss of calcein fluorescence) (AML-12 cells [3]): not |
| COc1ccc(OC)c(C(NC(=O)NCc2ccc(N)cc2)C(=O)N2CCCC2c2cccc3ccsc23)c1 (stereo not shown) [Compound C108, 1-(4-aminobenzyl)-3-(2-(2-(benzo[b]thiophen-7-yl)pyrrolidin-1-yl)-1-(2,5-dimethoxyphenyl)-2-oxoethyl)urea] | 480 ± 230 |  |
| COc1ccc(Br)cc1C(NC(=O)NCc1ccc(N)cc1)C(=O)N1CCCC1c1cccc2ccsc12 (stereo not shown) [Compound C110, 1-(4-aminobenzyl)-3-(2-(2-(benzo[b]thiophen-7-yl)pyrrolidin-1-yl)-1-(5-bromo-2-methoxyphenyl)-2-oxoethyl)urea] | 100 ± 20 | maximal mitochondrial CRC, diastereoisomer vs racemic mixture [1]: 400 ± 27 nmol Ca2+/mg of mitochondrial; maximal mitochondrial CRC [1]: 400 ± 27 nmol Ca2+/mg of mitochondrial; EC50 [1]: 2830 ± 90 nM; IC50 [2]: 370 ± 6 nM; prevention of mPTP opening (loss of calcein fluorescence) (AML-12 cells [3]): not |
| COc1cc(OC)c(C(NC(=O)NCc2ccc(N)cc2)C(=O)N2CCCC2c2cccc3ccsc23)cc1Br (stereo not shown) [Compound C112, 1-(4-aminobenzyl)-3-(2-(2-(benzo[b]thiophen-7-yl)pyrrolidin-1-yl)-1-(5-bromo-2,4-dimethoxyphenyl)-2-oxoethyl)urea] | 480 ± 40 |  |
| CSc1ccccc1C1CCCN1C(=O)C(NC(=O)NCC1CC2(CNC2)C1)c1ccccc1 (stereo not shown) [Compound C119, 1-((2-azaspiro[3.3]heptan-6-yl)methyl)-3-(2-(2-(2-(methylthio)phenyl)pyrrolidin-1-yl)-2-oxo-1-phenylethyl)urea] | 150 ± 30 |  |
| COc1ccc(Br)cc1C(NC(=O)NC(C)c1ccc(N)c(F)c1)C(=O)N1CCCC1c1ccccc1SC (stereo not shown) [Compound C123, 1-(1-(4-amino-3-fluorophenyl)ethyl)-3-(1-(5-bromo-2-methoxyphenyl)-2-(2-(2-(methylthio)phenyl)pyrrolidin-1-yl)-2-oxoethyl)urea] | 1260 ± 370 |  |
| CSc1ccccc1C1CCCN1C(=O)C(NC(=O)NCc1cccc2c1OCCO2)c1ccccc1 (stereo not shown) [Compound C129, 1-((2,3-dihydrobenzo[b][1,4]dioxin-5-yl)methyl)-3-(2-(2-(2-(methylthio)phenyl)pyrrolidin-1-yl)-2-oxo-1-phenylethyl)urea] | 260 ± 70 |  |
| CSc1ccccc1C1CCCN1C(=O)C(NC(=O)NCc1cccc2ccsc12)c1ccccc1 (stereo not shown) [Compound C142, 1-(benzo[b]thiophen-7-ylmethyl)-3-(2-(2-(2-(methylthio)phenyl)pyrrolidin-1-yl)-2-oxo-1-phenylethyl)urea] | 420 ± 100 |  |
| CSc1ccccc1C1CCCN1C(=O)C(NC(=O)NCc1cccc2c1CCN2)c1ccccc1 (stereo not shown) [Compound C144, 1-(indolin-4-ylmethyl)-3-(2-(2-(2-(methylthio)phenyl)pyrrolidin-1-yl)-2-oxo-1-phenylethyl)urea] | 310 ± 160 | maximal mitochondrial CRC [1]: 422 ± 44 nmol Ca2+/mg of mitochondrial; EC50 [1]: 11760 ± 10 nM; IC50 [2]: 11570 ± 10 nM |
| COc1ccc(OC)c(C(NC(=O)NCc2cccc3[nH]ccc23)C(=O)N2CCCC2c2ccccc2SC)c1 (stereo not shown) [Compound C170, 1-((1H-indol-4-yl)methyl)-3-(1-(2,5-dimethoxyphenyl)-2-(2-(2-(methylthio)phenyl)pyrrolidin-1-yl)-2-oxoethyl)urea] | 1050 ± 720 |  |
| COc1ccc(OC)c(C(NC(=O)NCc2cccc3[nH]ncc23)C(=O)N2CCCC2c2ccccc2SC)c1 (stereo not shown) [Compound C171, 1-((1H-indazol-4-yl)methyl)-3-(1-(2,5-dimethoxyphenyl)-2-(2-(2-(methylthio)phenyl)pyrrolidin-1-yl)-2-oxoethyl)urea] | 340 ± 130 |  |
| CSc1ccccc1C1CCCN1C(=O)C(NC(=O)NCc1cccc2[nH]ccc12)c1ccccc1 (stereo not shown) [Compound C172, 1-((1H-indol-4-yl)methyl)-3-(2-(2-(2-(methylthio)phenyl)pyrrolidin-1-yl)-2-oxo-1-phenylethyl)urea] | 210 ± 70 |  |
| CCNC(=O)N1CCCc2c(CNC(=O)NC(C(=O)N3CCCC3c3ccccc3SC)c3ccccc3)cccc21 (stereo not shown) [Compound C177, N-ethyl-5-((3-(2-(2-(2-(methylthio)phenyl)pyrrolidin-1-yl)-2-oxo-1-phenylethyl)ureido)methyl)-3,4-dihydroquinoline-1(2H)-carboxamide] | 490 ± 320 |  |
| CSc1ccccc1C1CCCN1C(=O)C(NC(=O)NCc1cccc2[nH]ncc12)c1ccccc1 (stereo not shown) [Compound C178, 1-((1H-indazol-4-yl)methyl)-3-(2-(2-(2-(methylthio)phenyl)pyrrolidin-1-yl)-2-oxo-1-phenylethyl)urea] | 400 ± 190 |  |
| CSc1ccccc1C1CCCN1C(=O)C(NC(=O)NN1Cc2ccc(N)cc2C1)c1ccccc1 (stereo not shown) [Compound C185, 1-(5-aminoisoindolin-2-yl)-3-(2-(2-(2-(methylthio)phenyl)pyrrolidin-1-yl)-2-oxo-1-phenylethyl)urea] | 590 ± 190 |  |
